For orientation: IC50 means the concentration needed to halve the response being measured. A higher IC50 goes with weaker potency. In general, EC50 refers to the concentration needed to bring the measured effect to its halfway point.

Several values for one entry are separate records, joined by “and”; a condition that tells them apart may be missing. Equal values may be shown once. A value given as a limit tells only on which side of the number the result lay.

These results are taken from US8084459B2, “Substituted quinazolinones for treating neurological conditions” (Prana Biotechnology Ltd, priority 2004, dated 2011).

Series [1] deals with T1, Aβ 1-42 (Homo sapiens, UniProt P05067).
T1 construct: The reaction solutions contained Aβ 1-42 at concentrations
T1 sequence (P05067 672-713 limits assumed): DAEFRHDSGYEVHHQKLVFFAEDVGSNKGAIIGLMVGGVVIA
Put plainly: Assay 1 Fluorometric H2O2 assay (peroxide). The class given is biochemical. The settings on record: inhibition of H2O2 generation by Aβ with copper. As to the method:
Assay 1. Fluorometric H2O2 Assay
A fluorometric assay was used to test the ability of a test compound to inhibit hydrogen peroxide generation by Aβ in the presence of copper based on dichlorofluoroscein diacetate (DCF; Molecular Probes, Eugene Oreg.). The DCF solution (5 mM) in 100% dimethyl sulphoxide (previously purged with argon for 1 hr at 20° C.) was deacetylated in the presence of 0.025M NaOH for 30 min and neutralised at pH 7.4 to a final concentration of 1 mM. Horseradish peroxidase (HRP) stock solution was prepared to 1 μM at pH 7.4. The reactions were carried out in PBS, pH 7.4 in a 96 well plate (total volume=250 μl/well). The reaction solutions contained Aβ 1-42 at concentrations in the range of 50 nM to 1 μM, copper-glycine chelate (Cu-Gly), was prepared by adding CuCl2 to glycine in the ratio of 1:6 and added to the Aβ in the proportion 2Cu-Gly:1Aβ), reducing agents including dopamine (5 μM) or ascorbic acid, deacetylated DCF 100 μM, and HRP, 0.1 μM. 1-10 μM EDTA or another chelator may also be present as a control for free copper, but was not required for the assay to function. The reaction mixture was incubated at 37 C for 60 min. Catalase (4000 units/ml) and H2O2 (1-2.5 μM) standards in PBS pH 7.4 may be included as positive controls. Fluorescence was recorded using a plate reader with excitation and emission filters at […] respectively. H2O2 concentration may be established by comparing fluorescence with the H2O2 standards. Inhibition of Aβ H2O2 production was assayed by including a given concentration of test compound(s) in the test wells.

The nature of series [2]: Assay 16 mouse plasma levels of test compounds. Type of series: in vivo. The settings on record: for Conc. in mouse plasma: listed as PB 1076, 30 mg/kg. The procedure:
Assay 16. Determination of Mouse Plasma Levels of Test Compounds PB 1075
Oral administration of PB 1075 at 30 mg/kg, as a suspension in Na-Carboxymethyl Cellulose (CMC) was administered by oral gavage to four mice. Two mice were sacrificed 30 minutes after administration and two mice were sacrificed 60 minutes after administration. Blood was obtained by cardiac puncture and plasma separated by centrifugation.
The concentration of PB 1075 was determined by LC/MS using the triple quadrupole instrument. The mobile phase consisted of an acetonitrile (ACN)/water gradient (containing 0.05% Formic acid) and the column was a Phenomenex Lunea 5 um C8 (50×2 mm) column.
The supplied acute toxicity mouse plasma samples were directly injected following a protein precipitation with ACN. The analytical method in plasma was linear in the range of 10 to 10,000 ng/ml (R^2=0.994). Recovery of PB 1075 from plasma was ˜100%.
Oral administration of PB 1076 at 30 mg/kg, as a suspension in Na-Carboxymethyl Cellulose (CMC) was administered by oral gavage to four mice. Two mice were sacrificed 30 minutes after administration and two mice were sacrificed 60 minutes after administration. Blood was obtained by cardiac puncture and plasma separated by centrifugation.
The concentration of PB 1076 was determined by LC/MS using the triple quadrupole instrument. The mobile phase consisted of an acetonitrile (ACN)/water gradient (containing 0.05% Formic acid) and the column was a Phenomenex Luna 5 μM C8 (50×2 mm) column.
The mouse plasma samples were directly injected following a protein precipitation with ACN. The analytical method in plasma was linear in the range of 500 to 10,000 ng/ml (R^2=0.999). Recovery of PB 1076 from plasma was ˜85%.
Oral administration of PB 1077 at 30 mg/kg, as a suspension in Na-Carboxymethyl Cellulose (CMC) was administered by oral gavage to four mice. Two mice were sacrificed 30 minutes after administration and two mice were sacrificed 60 minutes after administration. Blood was obtained by cardiac puncture and plasma separated by centrifugation.
The concentration of PB 1077 was determined by LC/MS using the triple quadrupole instrument. The mobile phase consisted of an acetonitrile (ACN)/water gradient (containing 0.05% Formic acid) and the column was a Phenomenex Luna 5 μM C8 (50×2 mm) column.
The mouse plasma samples were directly injected following a protein precipitation with ACN. The analytical method in plasma was linear in the range of 5 to 5,000 ng/ml (R^2=0.999). Recovery of PB 1077 from plasma was ˜92%.

Series [3] deals with soluble and insoluble Aβ in the brain. Put plainly: Assay 11 effect on Aβ deposits in transgenic animals (soluble and insoluble Aβ, Western blot). The class given is in vivo, APP2576 transgenic mouse. As to conditions: APP2576 mice. On the technique in general: Immunoblotting shows a protein as a band on a membrane.
The subject of series [4] is Aβ plaques. Put plainly: Assay 14 transgenic mouse brain immunohistochemistry (plaque score). The class given is in vivo. The settings on record: APP2576 mice. The text has this:
Assay 14. Transgenic Mouse Brain Immunohistochemistry
The APP2576 transgenic mouse (Hsiao et al., 1996) as referred to in Assay 11 is utilized in this assay. The contralateral formalin-fixed mouse brain tissue is coronally cut. Sections (10 μm) are taken from the corresponding sites and treated with 80% formic acid for antigen retrieval. The primary antibody used is monoclonal antibody 1E8, which recognizes epitopes between residues 18 and 22 of Aβ (SmithKline Beecham, UK). Immunoreactivity is developed with secondary antibody linked to horseradish peroxidase (using a 3,39-diaminobenzidinechromagen) (Dako) and alkaline phosphatase (using 5-bromo-4-chloro 3-indoxyl phosphate and nitroblue tetrazolium chloride chromagen) (Dako). Plaque abundance per section is assessed by two operators blinded to treatment according to the following scale:
1=plaques present but very sparse
2=several plaques present
3=numerous plaques visible in restricted areas
4=plaques abundant and not restricted to any particular area.
Intermediate values eg 2.5 are assigned where applicable. Students ‘t’ test is used for comparisons between groups.

Series [5] is described as follows: Assay 3(d) test compound cytotoxicity (MTS). Type of series: cell-based. The settings on record: BL6Jx129sv, mouse, primary cortical neuronal cultures, cortical neurons; for viability at 4 days, 1 µM: read-out: Assay 3(d) Cytotoxicity (% viable at 1 uM); for viability at 4 days, 10 µM: read-out: Assay 3(d) Cytotoxicity (% viable at 10 uM). As to the method:
Primary Cortical Neuronal Cultures
Cortical cultures were prepared as previously described (White et al., 1998). Embryonic day 14 BL6Jx129sv mouse cortices were removed, dissected free of meninges and dissociated in 0.025% (wt/vol) trypsin. Dissociated cells were plated in 48 well culture plates at a density of 2×10^6 cells/mL in MEM with 25% (vol/vol) FCS and 5% (vol/vol) HS and incubated at 37° C., 2 hrs. Media was then replaced with Neurobasal media (Invitrogen Life Technologies) and B27 supplements (Invitrogen Life Technologies). Cultures were maintained at 37° C. in 5% CO2. Prior to experimentation, the culture medium was replaced with Neurobasal media and B27 minus antioxidants (Invitrogen Life Technologies).
(a) MTS Assay for Cell Viability
Cell viability is determined using the MTS assay. Culture medium is replaced with fresh neurobasal medium plus B27 supplements minus antioxidants. 1/10 volume MTS solution (Cell Titre 96 Aqueous One, Promega Corporation) and incubated at 37° C., 2 hrs. 200 microlitre aliquots are measured with a spectrophotometer at 560 nm.
(d) Assay for Test Compound Cytoxicity
Neuronal cortical cells were cultured for five days as per Assay 2 in NB media and B27 supplement.
On day six the test compounds were added to the neuronal cell cultures in NB media and B27 supplement minus antioxidants.
Test compounds were dissolved in 100% DMSO to a concentration of 2.5 mM (10 mM if excess compound was weighed out per vial—then diluted to 2.5 mM). 2.5 mM stock solution was serially diluted 1 in 10 to give working solutions of 250 uM, 25 uM, 2.5 uM. Test compounds were not added directly to cells, instead they were added to a 48 well ‘Drug Plate’ as comprised below:
Preparation of “Drug Plate”:
• Well 1: 576 ul NB+B27 (no antioxidant)*+24 ul 2.5 uM test compound • Well 2: 576 ul NB+B27 (no antioxidant)+24 ul 25 uM test compound • Well 3: 576 ul NB+B27 (no antioxidant)+24 ul 250 uM test compound • Well 4: 576 ul NB+B27 (no antioxidant)+24 ul 2.5 uM test compound • Well 5: 576 ul NB+B27 (no antioxidant)+24 ul 25 uM test compound • Well 6: 576 ul NB+B27 (no antioxidant)+24 ul 250 uM test compound • Well 7: 576 ul NB+B27 (no antioxidant)+24 ul test compound diluent** • Well 8: 600 ul NB+B27 (no antioxidant)
The Drug Plate was incubated at 37° C. for 15 mins. 200 ul of each well was added in triplicate to the corresponding cell plate. The cell plate was incubated at 37° C., for 4 days, (2 compounds are tested on each plate of cells).
* NB media and B27 (no antioxidants),
** PBT diluent 10% DMSO in NB+B27 (no antioxidants)
On completion of the assay, 1/10 volume MTS was added per well of plate (ie 25 ul/250 ul). The plates were incubated at 37° C. for 2 hrs, and then absorbance was read at 560 nm.

Series [6] deals with T2, A-beta 1-42 aggregates formed by precipitation with zinc (Homo sapiens, UniProt P05067).
T2 construct: host or cells: chemically synthesised peptide
T2 sequence (P05067 672-713 limits assumed): as above
The series can be described thus: Assay 17 synthetic amyloid plaque disaggregation assay (thioflavin T). Type of series: biochemical. The settings on record: for Assay 17 percentage disaggregation at 5 uM: 5 uM (printed as 5/%); for EC50: Aβ1-42/Zn/ThT aggregates, 2 hours, 37 degrees. The procedure: Assay 17. Synthetic Amyloid Plaque Disaggregation Assay
This assay measures the ability of test compounds to dissolve aggregates of synthetic Alzheimer's A-beta 42 residue peptide formed by precipitation with zinc.
The synthetic plaque disaggregation assay is a thioflavin T fluorescence-based assay which measures the ability of a test compound to disaggregate synthetic aggregates generated by the incubation of Alzheimer's amyloid A-beta protein (Aβ) in the presence of zinc.
The 42 residue A-beta which is the form most prevalent in Alzheimer's amyloid plaques is precipitated by the addition of zinc salts to form a beta sheet conformational aggregate physicochemically congruent with the crystalline amyloid plaque cores. […] Solubilisation of the metal bound aggregates by a test compound will result in reduced fluorescence as the beta sheet conformation is lost. The activity of a compound in this assay is a combination of its metal chelating properties, solubility, hydrophobicity and structural elements which influence interaction with the amyloid mass.
The assay models the process by which a test compound is acting, either to compete for bound metals with Aβ or alternatively to displace metals by competitively binding at the metal binding site, resulting in Aβ precipitated by zinc, being solubilised, as an in vitro model of plaque disaggregation.
Aliquots of synthetic Aβ peptide are prepared for convenience. Aβ is dissolved in distilled H2O and peptide concentration is assessed by absorption at 214 nm against a validated standard curve. Abeta/Zn aggregates in the presence of solvent only (DMSO) and control vehicle (PBS) are included in each assay as negative controls. The test compounds were dissolved in DMSO to a concentration of 5 mM. Dilutions were made in DMSO as appropriate to 100 times the desired final concentration and added immediately to the A-beta aggregates.
A-beta 1-42 is incubated with ZnCl2 and Thioflavine T (ThT) in a molar ratio of (1:2:2) for 24 hours at 37 degrees on a rotating wheel in PBS pH 6.6. Following incubation, aggregates are incubated with test drug for a further 2 hours at 37 degrees with rotation. PBS blank, untreated aggregates and DMSO controls are included with each experiment. After 2 hour incubation, samples are measured for ThT fluorescence using an LS55 (Perkin Elmer) fluorimeter in a cuvette.
Data are generated in FL Winlab software (Perkin Elmer) and analysed using GraphPad Prism v4.0 software. Data are calculated as the average of multiple reads.
The two values together provide a measure of the efficiency of disaggregation.

In series [1], `Br.O=c1c2c(Cl)cc(Cl)c(O)c2ncn1CC1CC1` [Compound 1076] gave an IC50 of 0.45 µM. Besides, the “Conc. in mouse plasma” value was 1593.61 ng/mL in series [2] (30 min after oral dosing at 30 mg/kg, single mouse); 1167.52 ng/mL and 2697.62 ng/mL in series [2] (60 min after oral dosing at 30 mg/kg, single mouse). Further, in series [2] (highest level found in mice (Up to), oral dosing 30 mg/kg described for PB 1075-1077), the “Assay 16 Mice plasma concentration” value is given as “Up to 2698 ng/mL”. The concentration at 30 min in series [2] (mouse, plasma, po, 30 mg/kg, 30 min after oral dosing at 30 mg/kg, single mouse, read-out: Conc. in mouse plasma) was 2330 ng/mL. The “Tg mice Insoluble Fraction: % change compared with vehicle alone control mice” value in series [3] (insoluble Aβ) is listed as −21% (insol). Moreover, in series [3] (soluble Aβ), the “Tg mice Soluble Fraction: % change compared with vehicle alone control mice” value was −24% (sol). Besides, the “Plaques score: average count score per treatment group relative to the vehicle (sham) treated group” value in series [4] is on record as −29% (plaque).
In series [1], `Br.O=c1c2c(Cl)cc(Cl)c(O)c2ncn1Nc1ccc(F)cc1F` [Compound 1100] came in with a 50% inhibitory concentration (IC50) of 0.42 µM. Further, in series [5], the viability at 4 days, 1 µM was determined as 100% and the viability at 4 days, 10 µM turned out to be 92%. For the same compound, in series [6], the “Assay 17 percentage disaggregation at 5 uM” value was 42% and the EC50 amounted to 17 µM.
In turn, `Br.O=c1c2c(Cl)cc(Cl)c(O)c2ncn1Cc1cccc(Cn2cnc3c(O)c(Cl)cc(Cl)c3c2=O)n1` [Compound 1101] gave an IC50 in series [1] below 4.1 µM. In addition, in series [5], the viability at 4 days, 1 µM was found to be 89% and the viability at 4 days, 10 µM came out at 17%. For the same compound, in series [6], the “Assay 17 percentage disaggregation at 5 uM” value was 45 5/% and the EC50 stood at 11.7 µM.
As to `CCN(CC)Cc1nc2c(O)c(Cl)cc(Cl)c2c(=O)[nH]1` [Compound 1128], the IC50 in series [1] was determined as 0.34 µM. Also, in series [6], the “disaggregation (rating in words)” value was “very good (A test compound able to achieve an IC50 at less than 20 μM and scoring greater than 40% disaggregation at 5 μM is considered ‘very good’)”; the “Assay 17 percentage disaggregation at 5 uM” value is listed as 41 5/%; the EC50 is 13.2 µM.
As to `O=c1c2c(Cl)ccc(O)c2ncn1CC1CC1` [Compound 1132], the “Assay 17 percentage disaggregation at 5 uM” value in series [6] is on record as 16 5/%.
